Measured values reported in patent US20180353460A1, “METHODS OF TREATING UROLOGICAL DISORDERS USING SARMs” (priority 2014, published 2018).
Values joined by “and” are separate entries in the source; they are usually repeats but may differ in a detail not shown here. Equal entries are not always repeated.

Tests used:
[1] = tested on: postmenopausal women with SUI and UUI; experiment: Proof of concept clinical study: urge incontinence leaks per day; format: in vivo, human
Text: Unexpectedly, Compound IX reduced the median and mean number of urge leaks by ˜60-70% at the week 12 endpoint (Table 12). FIG. 14 provides mean urge leaks/day data over the course of the study in these 11 patients. At baseline the mean was 1.41 urge leaks per day which was reduced to 0.45 urge leaks per day at weak 12, representing a 68% decrease from baseline. Further, the effect on urge incontinence is durable for at least 7 months (N=7) with 0.62 urge leaks per day at 40 weeks (7 months after the last dose of Compound IX). It was unexpected to see any effect of Compound IX on urge incontinence much less such a dramatic and durable effect.
To summarize: while all of the women in the trial had predominant SUI, some also experienced urge urinary incontinence (UUI).

[2] = tested on: levator ani muscle; experiment: Earlier male rat model with castrate levels of serum testosterone; format: in vivo
Text: Extensive clinical data related to the use of Compound IX are described below; however, there are both preclinical and clinical data supporting the specific investigation of Compound IX for the treatment of SUI. Among the preclinical findings are that Compound IX has androgenic and anabolic activity in male and female rat models. […] These studies together provide an approximation of the expected effect of Compound IX, since currently there are no data in female models regarding levator ani hypertrophy or stress urinary incontinence. […] Based upon these preclinical and clinical analyses, a significant growth/bulking of the levator ani in females with SUI was anticipated, which may also result in improvements in associated symptoms, and are therefore the focus of the study outlined herein.

[3] = tested on: postmenopausal women with SUI; experiment: Proof of concept clinical study: stress leaks per day by 3 day voiding diary; format: in vivo, human
Procedure: This was initially a single site, proof of concept feasibility study to describe the effect of the S-isomer of the compound of Formula IX (Compound IX) 3 mg in postmenopausal female subjects with SUI. However, data presented herein were from subjects seen at 3 separate sites.
Described is the effect of 12 weeks of treatment of Compound IX on the number of stress urinary incontinence episodes/day as assessed by the 3 day voiding diary. See leaks/day data in Tables 2 (individual subject data from all 3 sites), Tables 4-6 (mean stress leaks for sites 1, 2, and 3, respectively), and FIG. 10 (mean stress leaks/day across all sites). Further, see Table 3 for the durability of this response in subjects assessed at 16, 24, 32 and 40 weeks (and their pad weights).
Subjects were instructed to take one 3 mg softgel capsule per day by mouth, without regard to food intake.
This is a proof of concept feasibility study, so no power calculation was needed. Therefore, up to 35 subjects meeting inclusion/exclusion criteria would be recruited until the enrolled subjects have completed treatment. Further, durability was assessed at 40 weeks. Descriptive statistics were performed to explore changes in primary and secondary outcomes measures between baseline and weeks 12 (end of treatment) or 40 (durability). The primary efficacy measure was a reduction in the number of stress incontinence episodes/day. […] Safety will be determined by the number and type of adverse events reported during treatment, but is reported here from historical data from other clinical trials. Various imputation methods may be explored.
Change in frequency of daily stress urinary incontinence episodes from Baseline to Week 12 and durability at 40 weeks (28 weeks after Compound IX treatment is discontinued).
The data were collected from first 18 patients at 12 weeks and are derived from number of stress leaks reported by subjects in a 3 day voiding diary. […] Table 3 provides durability data of Compound IX for 18 patients and depicts that, for the first 9 subjects, this response was durable out to 40 weeks, i.e., 28 weeks (7 months) after treatment with Compound IX was discontinued. Data collection and analysis is ongoing.

## C[C@](O)(COc1ccc(C#N)cc1)C(=O)Nc1ccc(C#N)c(C(F)(F)F)c1 [Compound IX, (S)—N-(4-Cyano-3-(trifluoromethyl)phenyl)-3-(4-cyanophenoxy)-2-hydroxy-2-methylpropanamide]
[1]; 11 patients with >0 baseline leaks, baseline 1.3
  Median urge incontinence leaks per day, Week 12: 0.3
[1]; 11 patients with >0 baseline leaks, baseline 1.41
  Mean urge incontinence leaks per day, Week 12: 0.45 leaks/day
[1]; N=7, 7 months after the last dose
  mean urge leaks per day at 40 weeks: 0.62 urge leaks per day
[1]; individual patients, 3 mg/day p.o.
  Number of Urge Incontinence Leaks per Day, Week 12: 0 (10×) and 0.33 and 1 (2×) and 0.3 and 2.7 and 1.67 and 0.67
[1]; week 12
  women with a reduction in UUI episodes per day of at least 50 percent: 8 of 11
  women with a reduction in their number of UUI leaks compared to baseline: 9 of 11 and 11 of 11
[1]; week 12 endpoint, 11 patients
  reduction of median and mean number of urge leaks: 60-70%
[2]
  hypertrophy of the levator ani muscle: approximately 120 % of an intact male
[3]; N=9, 7 months after discontinuation
  mean stress leaks/day at 40 weeks: 0.63 leaks/day
[3]; Site 1 (n = 10), week 12
  Stress Leaks % Reduction: 86%
[3]; Site 2 (n = 5), week 12
  Stress Leaks % Reduction: 75%
[3]; Site 3 (n = 2), week 12
  Stress Leaks % Reduction: 78%
[3]; all sites, 18 patients
  reduction of mean stress leaks/day from baseline to week 12: 81%
[3]; all sites, 18 patients, baseline 5.17
  mean stress leaks/day at week 12: 1.0 leaks/day and 1.00 leaks/day
[3]; individual patients, 3 mg/day p.o., week 12
  Leaks/Day (Week 12), stress leaks: 2.33 leaks/day and 0 leaks/day (3×) and 1 leaks/day (2×) and 1.33 leaks/day (2×) and 0.33 leaks/day (3×) and 1.66 leaks/day and 1.30 leaks/day and .67 leaks/day and 2.3 leaks/day and .33 leaks/day and 3 leaks/day and 0.67 leaks/day
[3]; individual patients, 4 weeks post-treatment
  Durability of response: % Reduction in leaks/day Week 16: 77% and 100% (5×) and 60% and 50% and 92% and 89% and 79% and 78% and 64% and 65%
[3]; individual patients, 12 weeks post-treatment
  Durability of response: % Reduction in leaks/day Week 24: 69% and 100% (6×) and 70% and 42% and 95% and 10% and 57% and 78% and 50% and 60%
[3]; individual patients, 20 weeks post-treatment
  Durability of response: % Reduction in leaks/day Week 32: 54% and 95% and 100% (3×) and 17% and 50% and 36% and 55% and 93%
[3]; individual patients, 28 weeks post-treatment
  Durability of response: % Reduction in leaks/day Week 40: 69% and 100% (5×) and 80% and 42% and 72%
[3]; week 12, 18 patients
  patients who were responders (50% or greater reduction in stress leaks/day): all patients were responders and All 18 patients were responders and All 18 subjects and all 18 subjects and 18 of 18
